Earlier results on one compound are cited in PMC3085958 (Journal of medicinal chemistry, 2011).

Marks after values point to notes of the source that are not given here.

For this data set, the target named is CB2 receptors (Homo sapiens, UniProt P34972). The note with it: Kb value.
CB2 receptors, sequence (P34972 whole entry): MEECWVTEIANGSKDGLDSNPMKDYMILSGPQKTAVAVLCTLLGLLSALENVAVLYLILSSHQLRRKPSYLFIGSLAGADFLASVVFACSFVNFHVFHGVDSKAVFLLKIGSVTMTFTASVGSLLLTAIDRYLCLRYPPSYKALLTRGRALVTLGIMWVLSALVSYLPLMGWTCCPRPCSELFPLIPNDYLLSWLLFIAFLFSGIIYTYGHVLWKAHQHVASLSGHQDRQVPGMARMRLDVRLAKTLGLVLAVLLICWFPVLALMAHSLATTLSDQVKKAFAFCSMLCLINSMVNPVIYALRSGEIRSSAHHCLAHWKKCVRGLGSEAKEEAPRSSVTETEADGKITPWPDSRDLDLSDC

As to `COc1cccc([C@H]2C[C@@H](N[C@H](C)c3ccccc3)C(=O)N2c2ccc(C(F)(F)F)cc2)c1` [Ligand 3], the “CB2 Kb (in the CB2 Ki column)” value was > 1,980 ^c nM.
